In patent US9487462B2, “Inhibitors of matrix metalloproteinases” (PharmaHungary 2000 Kft., priority 2010, dated 2016):
Read-outs that look alike come from different tables or passages of the source.

Key:
MMP1 = MMP1 (Homo sapiens (Human), UniProt P03956); experiment: MMP activity assay (fluorogenic substrate), MMP1; format: biochemical; conditions: Table 2; read-out: MM1 IC50
MMP2 = MMP2 (Homo sapiens, UniProt P08253); experiment: MMP activity assay (fluorogenic substrate), MMP2 catalytic domain; format: biochemical; conditions: Table 2; read-out: MMP2 IC50
Procedure: (§1) MMP activity assays were conducted as follows: MMP2, MMP9, MMP13 catalytic domain was expressed in E. coli in form of inclusion bodies followed by refolding and purification.
(§2) The Protocol of the Activity Assay:
(§3) Stock solution of substrate (Mca-Lys-Pro-Leu-Gly-Leu-Dpa-Ala-Arg-NH2) was prepared in DMSO at a concentration of 6 mM. Assays were performed in an assay buffer (50 mM Tris pH 7.5, 300 mM NaCl, 10 μM ZnSO4, 5 mM CaCl2, 0.005% Brij-35). The final DMSO concentration in all assays was 1.0%. […] The assays were carried out at 37° C. The fluorescence changes, resulting from the substrate cleavage, were detected using excitation at 340 nm and emission wavelength of 405 nm using a Wallac 1420 Microplate Reader. The reaction mixtures were preincubated with the inhibitors for 30 minutes. The reactions were started by the addition of MMP substrate, and the fluorescence intensity changes were measured after 60 minutes. The obtained fluorescence values were normalized and % inhibition values calculated. Dose response curves were determined from 6 concentration points using three fold dilution steps, each concentration point was determined in duplicate. IC50 values were calculated from the dose response curves.

MMP9 = MMP9 (Homo sapiens, UniProt P14780); experiment: MMP activity assay (fluorogenic substrate), MMP9 catalytic domain; format: biochemical; conditions: Table 2
Procedure: as §1, §2, §3

MMP13 = MMP13 (Homo sapiens (Human), UniProt P45452); experiment: MMP activity assay (fluorogenic substrate), MMP13 catalytic domain; format: biochemical
Procedure: as §1, §2
as §3, with “The fluorescence changes, resulting from the substrate cleavage, were detected using excitation at 340 nm and emission wavelength of 405 nm using a Wallac 1420 Microplate Reader.” left out

[1] = Cytotoxicity, alamarBlue viability, MRC-5; format: cell-based; conditions: human, MRC-5 fibroblast cells, 48 hours incubation, read-out: MRC-5 LC50
Procedure: (§4) Beside the inhibitory effect on MMPs we tested the cytotoxicity of the selected compounds. These measurements were done in parallel on two cell lines. One of them was the healthy human fibroblast cell line MRC-5 while the other was the human colon tumor cell line HCT116. The viability of the cells was monitored using alamarBlue. This dye is reduced by the cells resulting in an increased fluorescent signal which is proportional to the number of living cells. Cells were incubated with the dilutions of the tested compounds for 48 hours then alamarBlue was added to them for 4 hours. After that the fluorescence changes were detected using excitation at 540 nm and emission wavelength of 590 nm by a Wallac 1420 Microplate Reader. IC50 values were determined for the compounds using six concentrations and duplicate points for each concentration.

[2] = Cytotoxicity, alamarBlue viability, HCT116; format: cell-based; conditions: human, HCT116 colon tumor cells, 48 hours incubation, read-out: HCT116 LC50
Procedure: as §4

[3] = system: neonatal rat cardiac myocytes; experiment: Cytoprotective effect in cardiac myocytes subjected to hypoxia and reoxygenation; format: cell-based
Procedure: Neonatal rat hearts were digested and isolated cardiomyocytes were plated onto 24-well plastic plates at […]. The cells were maintained at 37° C. in a humidified atmosphere of 5% CO2 and 95% air in a CO2 incubator until confluence was reached. Cultures at day 3 were used for treatments. Cells were kept under normoxic or simulated ischemic conditions, i.e. the growth medium was changed to a normoxic or hypoxic solution and the cells were incubated under 95% air and 5% CO2 or 95% N2 and 5% CO2 at 37° C. for 4 h, respectively as described in detail (Gorbe A, Giricz Z, Szunyog A, Csont T, Burley D S, Baxter G F, Ferdinandy P. Role of cGMP-PKG signaling in the protection of neonatal rat cardiac myocytes subjected to simulated ischemia/reoxygenation. Basic Res Cardiol. 105:643-650, 2010). The positive control ilomastate (0.5 microM) and MMP-inhibitors at different effective concentrations (EC 5, EC 10, EC 20, and EC50 as determined in previous test examples) were applied during normoxia or simulated ischemia and also during reoxygenation. The vehicle was DMSO. Cell viability was determined after Calcein A M fluorescent staining as described (Karliner J S, Honbo N, Summers K, Gray M O, Goetzl E J. The lysophospholipids sphingosine-1-phosphate and lysophosphatidic acid enhance survival during hypoxia in neonatal rat cardiac myocytes. J Mol Cell Cardiol, 33:1713-7, 2001). Total cell count was determined after digitonin treatment to permeabilize the cells by using propidium iodine fluorescent staining (Roy S S, Hajnoczky G. Calcium, mitochondria and apoptosis studied by fluorescence measurements. Methods. 46:213-223, 2008).

MMP-2 = MMP-2 (Rattus norvegicus (Rat), UniProt P33436); experiment: In vitro zymography assay (gelatin), MMP-2; format: biochemical
Sequence of MMP-2 (P33436 110-662): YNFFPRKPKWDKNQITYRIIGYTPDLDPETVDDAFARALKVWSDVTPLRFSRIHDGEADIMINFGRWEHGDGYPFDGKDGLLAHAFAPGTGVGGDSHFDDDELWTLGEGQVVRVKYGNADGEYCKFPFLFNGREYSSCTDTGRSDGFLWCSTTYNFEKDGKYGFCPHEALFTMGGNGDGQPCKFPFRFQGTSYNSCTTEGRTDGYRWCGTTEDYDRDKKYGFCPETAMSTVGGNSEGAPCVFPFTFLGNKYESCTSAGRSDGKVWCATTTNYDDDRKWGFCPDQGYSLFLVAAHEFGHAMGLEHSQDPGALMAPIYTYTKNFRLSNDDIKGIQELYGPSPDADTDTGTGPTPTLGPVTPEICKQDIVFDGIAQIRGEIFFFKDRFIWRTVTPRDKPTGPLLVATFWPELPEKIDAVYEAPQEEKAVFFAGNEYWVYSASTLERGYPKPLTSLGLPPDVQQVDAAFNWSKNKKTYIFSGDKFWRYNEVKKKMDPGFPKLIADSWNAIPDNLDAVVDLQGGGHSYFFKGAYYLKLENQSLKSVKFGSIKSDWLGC
Procedure: MMP-2 and MMP-9 enzymes were isolated from rat hearts and from rat spleen while human, recombinant MMP-1 and MMP-13 enzymes used were commercial. MMP-2, -9, -13 enzymes were separated by electrophoresis during non-reducing conditions on 8% SDS-polyacrylamide gels copolymerized with 2 mg/ml gelatin from porcine skin (Sigma Aldrich) while MMP-1 was separated under the same conditions on 8% SDS-polyacrylamide gels copolymerized with 2 mg/ml casein (Sigma Aldrich). […] In case of MMP-13 p-aminophenylmercuric acetate (APMA) was used for enzyme activation at 37° C. for 30 min. After electrophoresis, gels were washed in 2.5% Triton-X 100 with agitation and then incubated for 20 hrs at 37° C. in enzyme incubation buffer (50 mM Tris-HCl, pH 7.5, containing 5 mM CaCl2, 200 mM NaCl) with or without MMP inhibitor. Zymographic gels were stained in Coomassie Brilliant Blue R-250 and de-stained. Gelatin and casein zymograms were scanned. MMP activity is detected as a white zone on a blue background and the clear bands in the gel can be quantified by densitometry. The obtained density values were measured and % inhibition values calculated (Kupai et al., 2010). The table below summarizes the prescreen inhibition values determined for different MMP inhibitors on MMP1, -2, -9, -13.

Sequence of MMP1 (P03956 100-469, species assumed): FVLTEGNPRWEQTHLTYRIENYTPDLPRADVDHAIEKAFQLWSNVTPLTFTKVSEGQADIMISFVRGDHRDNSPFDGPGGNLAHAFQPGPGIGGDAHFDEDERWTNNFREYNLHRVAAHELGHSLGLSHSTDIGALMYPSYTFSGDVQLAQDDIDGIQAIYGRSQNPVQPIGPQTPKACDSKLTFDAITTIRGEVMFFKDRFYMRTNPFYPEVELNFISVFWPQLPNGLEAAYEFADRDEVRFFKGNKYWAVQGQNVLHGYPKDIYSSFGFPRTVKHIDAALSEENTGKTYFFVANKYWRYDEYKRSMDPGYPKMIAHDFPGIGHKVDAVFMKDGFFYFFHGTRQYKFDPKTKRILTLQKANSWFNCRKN

SMILES | IC50 (MMP1) [µM] | IC50 (MMP2) [µM] | IC50 (MMP9) [µM] | IC50 (MMP13; Table 2, read-out: MMP13 IC50) [µM] | CC50 at 48 h [1] [µM] | CC50 at 48 h [2] [µM] | also measured
CNC(=O)[C@H](Cc1c[nH]c2ccccc12)NC(=O)[C@@H](CC(=O)NO)CC(C)C [ilomastat, reference compound] |  |  |  |  |  |  | IC50 (MMP13; read-out: IC50 on MMP13): 0.0002 µM; IC50 (MMP-2): 0.71 nM; cytoprotective effect as compared to vehicle-treated cells ([3]; positive control, 0.5 microM): approximately 120%
Cn1cc(C(F)(F)F)nc1CN(Cc1ccc(F)cc1)Cc1ccc(OCc2ccccc2)cc1 [Compound 26, {[4-(Benzyloxy)phenyl]methyl}[(4-fluorophenyl)methyl]{[1-methyl-4-(trifluoromethyl)-1H-imidazol-2-yl]methyl}amine] | > 500 | > 500 | > 500 | 34 | 40 | 25 | 
CCOC(=O)c1csc(CN(Cc2ccncc2)Cc2ccc(OCc3ccccc3)cc2)n1 [Compound 20, Ethyl 2-[({[4-(benzyloxy)phenyl]methyl}(pyridin-4-ylmethyl)amino)methyl]-1,3-thiazole-4-carboxylate] | 325 | > 500 | > 500 | 7.5 | 13 | 16 | 
CCOC(=O)c1csc(CN(Cc2ccc(OCc3ccccc3)cc2)Cc2cccnc2)n1 [Compound 16, Ethyl 2-[({[4-(benzyloxy)phenyl]methyl}(pyridin-3-ylmethyl)amino)methyl]-1,3-thiazole-4-carboxylate] | 340 | > 500 | 280 | 5 | 1.9 | 1.8 | Cytoprotective effect, % cell survival as compared to vehicle DMSO ([3]; normoxia, EC5 concentration 4.0 microM): 105 ± 2%; Cytoprotective effect, % cell survival as compared to vehicle DMSO ([3]; normoxia, EC10 concentration 8.0 microM): 108 ± 3 %; Cytoprotective effect, % cell survival as compared to vehicle DMSO ([3]; normoxia, EC20 concentration 16.0 microM): 99 ± 2%; Cytoprotective effect, % cell survival as compared to vehicle DMSO ([3]; normoxia, EC50 concentration 32.0 microM): 91 ± 2 %; Cytoprotective effect, % cell survival as compared to vehicle DMSO ([3]; simulated ischemia, EC5 concentration 4.0 microM): 119 ± 3 %; Cytoprotective effect, % cell survival as compared to vehicle DMSO ([3]; simulated ischemia, EC10 concentration 8.0 microM): 119 ± 3 %; Cytoprotective effect, % cell survival as compared to vehicle DMSO ([3]; simulated ischemia, EC20 concentration 16.0 microM): 122 ± 4 %; Cytoprotective effect, % cell survival as compared to vehicle DMSO ([3]; simulated ischemia, EC50 concentration 32.0 microM): 113 ± 4 %

Continued by falling IC50 (MMP1), values first:

IC50 (MMP1) [µM] | IC50 (MMP2) [µM] | IC50 (MMP9) [µM] | IC50 (MMP13; Table 2, read-out: MMP13 IC50) [µM] | SMILES | CC50 at 48 h [1] [µM] | CC50 at 48 h [2] [µM] | also measured
235 | > 500 | > 500 | 10 | O=C(O)c1c[nH]c(CNCc2ccc(OCc3cccnc3)cc2)n1 [Compound 31, 2-[({[4-(Pyridin-3-ylmethoxy)phenyl]methyl}amino)methyl]-1H-imidazole-4-carboxylic acid] | 200 | 70 | Cytoprotective effect, % cell survival as compared to vehicle DMSO ([3]; normoxia, EC5 concentration 0.3 microM): 97 ± 4%; Cytoprotective effect, % cell survival as compared to vehicle DMSO ([3]; normoxia, EC10 concentration 0.6 microM): 102 ± 5%; Cytoprotective effect, % cell survival as compared to vehicle DMSO ([3]; normoxia, EC20 concentration 1.2 microM): 104 ± 3%; Cytoprotective effect, % cell survival as compared to vehicle DMSO ([3]; normoxia, EC50 concentration 2.5 microM): 105 ± 4%; Cytoprotective effect, % cell survival as compared to vehicle DMSO ([3]; simulated ischemia, EC5 concentration 0.3 microM): 109 ± 5%; Cytoprotective effect, % cell survival as compared to vehicle DMSO ([3]; simulated ischemia, EC10 concentration 0.6 microM): 103 ± 4%; Cytoprotective effect, % cell survival as compared to vehicle DMSO ([3]; simulated ischemia, EC20 concentration 1.2 microM): 111 ± 4%; Cytoprotective effect, % cell survival as compared to vehicle DMSO ([3]; simulated ischemia, EC50 concentration 2.5 microM): 147 ± 2 %
190 | 200 | > 500 | 19 | CCOC(=O)c1csc(CN(Cc2ccc(OCc3ccncc3)cc2)Cc2cccnc2)n1 [Compound 19, Ethyl 2-{[(pyridin-3-ylmethyl)({[4-(pyridin-4-ylmethoxy)phenyl]methyl})amino]methyl}-1,3-thiazole-4-carboxylate] | 27 | 7.3 | 
17 | 30 | 20 | 3 | O=C(O)c1csc(CN(Cc2ccc(F)cc2)Cc2ccc(-c3ccccc3)cc2)n1 [Compound 15, 2-({[(4-Fluorophenyl)methyl][(4-biphenyl)methyl]amino}methyl)-1,3-thiazole-4-carboxylic acid] | 2.9 | 1 | Cytoprotective effect, % cell survival as compared to vehicle DMSO ([3]; normoxia, EC5 concentration 3.0 microM): 95 ± 2%; Cytoprotective effect, % cell survival as compared to vehicle DMSO ([3]; normoxia, EC10 concentration 10.0 microM): 99 ± 2%; Cytoprotective effect, % cell survival as compared to vehicle DMSO ([3]; normoxia, EC20 concentration 30.0 microM): 100 ± 2%; Cytoprotective effect, % cell survival as compared to vehicle DMSO ([3]; normoxia, EC50 concentration 90.0 microM): 83 ± 2 %; Cytoprotective effect, % cell survival as compared to vehicle DMSO ([3]; simulated ischemia, EC5 concentration 3.0 microM): 109 ± 5%; Cytoprotective effect, % cell survival as compared to vehicle DMSO ([3]; simulated ischemia, EC10 concentration 10.0 microM): 117 ± 5 %; Cytoprotective effect, % cell survival as compared to vehicle DMSO ([3]; simulated ischemia, EC20 concentration 30.0 microM): 114 ± 4 %; Cytoprotective effect, % cell survival as compared to vehicle DMSO ([3]; simulated ischemia, EC50 concentration 90.0 microM): 88 ± 4%
6 | 25 | 9.8 | 4.7 | O=C(O)c1csc(CN(Cc2ccc(OCc3ccccc3)cc2)Cc2cccc(F)c2)n1 [Compound 5, 2-[({[4-(Benzyloxy)phenyl]methyl}[(3-fluorophenyl)methyl]amino)methyl]-1,3-thiazole-4-carboxylic acid] | 43 | 3.5 | % inhibition MMP-2 (72 kDa) (MMP-2; 1 μM, % ± SD): No inhibition; inhibition at 100 µM (MMP-2; 100 μM, % ± SD, read-out: % inhibition MMP-2 (72 kDa)): 11.1 ± 1.58%
